The results in this text go back to ChEMBL document CHEMBL1122357, “Alkylation of opioid receptor subtypes by alpha-chlornaltrexamine produces concurrent irreversible agonistic and irreversible antagonistic activities” (J Med Chem, 1983).

What all share (assay type): functional
Assay [1] is described as follows: kappa antagonistic effect on beta-FNA treated GPI (IC50 ratio=IC50 after treatment/IC50 before treatment).
Assay [2] is described as follows: kappa antagonistic effect on beta-FNA and alpha-CNA treated GPI (IC50 ratio=IC50 after treatment/IC50 before treatment).
The species entered for assay [3] is Cavia porcellus. The assay can be described thus: Agonistic effect on untreated guinea pig ileum preparations (GPI).
The species entered for assay [4] is Cavia porcellus. The assay can be described thus: Agonistic effect on beta-FNA treated guinea pig ileum preparations (GPI).

Molecules are shown by their SMILES.

For orientation: IC50 means the midpoint of a concentration-inhibition curve. A lower IC50 goes with inhibition by little substance. `CCOc1ccc2c(c1)C1(C)CCN(CC3CC3)C(C2=O)C1C` (stereo unspecified) [ETHYLKETAZOCINE]: the Ratio in assay [1] amounted to 1.21; in assay [2], 10.1. Besides, the IC50 came to 0.72 nM in the assay listed under Cavia porcellus [3] (Cavia porcellus, Ileum) and 0.69 nM in the assay listed under Cavia porcellus [4] (Cavia porcellus, Ileum).

Turning to `Oc1ccc2c3c1O[C@H]1[C@@H](N(CCCl)CCCl)CCC4(O)C(C2)N(CC2CC2)CCC314` (stereo partly specified), the IC50 came out at 5.5 nM in the assay filed under Cavia porcellus [3] and 2.4 nM in the assay listed under Cavia porcellus [4].
